# Measurements reported in PubChem BioAssay AID1117348 (Cheminformatics & Chemogenomics Research Group (CCRG), …, 2015).
# The source made the active and inactive calls. No rule for the calls is given here.
# Tested on: HeLa cell cycle, increased S-phase population
# Experiment: HeLa S-phase population increase, dose response, cell-based, IC50 (AID 1117348)
row,SMILES,IC50
1,CCN(CC)CCOc1ccccc1C(=O)CCc1ccccc1,> 10 µM (inactive)
2,CCN(CC)CCOc1ccc(C(O)(Cc2ccc(Cl)cc2)c2ccc(C)cc2)cc1 (configuration not stated),> 10 µM (inactive)
3,COCc1c(C(C)C)nc(C(C)C)c(/C=C/[C@@H](O)C[C@@H](O)CC(=O)O)c1-c1ccc(F)cc1,> 10 µM (inactive)
4,O=c1[nH]c(=O)n([C@H]2C[C@H](O)[C@@H](CO)O2)cc1Br,> 10 µM (inactive)
5,CCN(CC)CCCC(C)Nc1c2ccc(Cl)cc2nc2ccc(OC)cc12 (configuration not stated),2.26 µM
6,CC(=O)Oc1ccccc1C(=O)Nc1ncc([N+](=O)[O-])s1,> 10 µM (inactive)
7,O=C(Nc1ccc(Br)cc1)c1cc(Br)cc(Br)c1O,> 10 µM (inactive)
8,O=Cc1ccc(O)c(O)c1O,> 10 µM (inactive)
9,N[C@@H](Cc1ccc(N(CCCl)CCCl)cc1)C(=O)O,> 10 µM (inactive)
10,CCN(CC)CCNc1ccc(CO)c2sc3ccccc3c(=O)c12,> 10 µM (inactive)
11,CC(C)=CCNc1ncnc2c1ncn2[C@@H]1O[C@H](CO)[C@@H](O)[C@H]1O,> 10 µM (inactive)
12,CCCCc1ccc2nc(NC(=O)OC)[nH]c2c1,> 10 µM (inactive)
13,COC(=O)Nc1nc2ccc(C(=O)C3CC3)cc2[nH]1,> 10 µM (inactive)
14,CC[C@H](C)C(=O)O[C@H]1C[C@@H](C)C=C2C=C[C@H](C)[C@H](CC[C@@H]3C[C@@H](O)CC(=O)O3)[C@H]21,> 10 µM (inactive)
15,CO[C@@H]1[C@@H](OC)[C@H](C)[C@@](O)(CC(=O)O)O[C@H]1[C@H](C)[C@H]1O[C@@]2(CC[C@@](C)([C@H]3CC[C@@](C)([C@@H]4O[C@@H]([C@H]5O[C@](C)(O)[C@H](C)C[C@@H]5C)C[C@@H]4OC4C[C@H](OC)[C@@H](OC)[C@H](C)O4)O3)O2)C[C@H](O)[C@H]1C (some centres not stated),> 10 µM (inactive)
16,COc1cc2c(c(OC)c1OC)-c1ccc(OC)c(=O)cc1[C@@H](NC(C)=O)CC2,0.1 µM (inactive)
17,COC(=O)Nc1nc2ccc(C(=O)c3cccs3)cc2[nH]1,> 10 µM (inactive)
18,Oc1c(Cl)cc(Cl)cc1Sc1cc(Cl)cc(Cl)c1O,> 10 µM (inactive)
19,CN(C)CCOC(c1ccccc1)c1ccc(Br)cc1 (configuration not stated),> 10 µM (inactive)
20,CCc1nc(N)nc(N)c1-c1ccc(Cl)cc1,> 10 µM (inactive)
21,Nc1nc(F)nc2c1ncn2[C@@H]1O[C@H](CO)[C@@H](O)[C@@H]1O,> 10 µM (inactive)
22,NC(N)=NN=C(/C=C/c1ccc([N+](=O)[O-])o1)/C=C/c1ccc([N+](=O)[O-])o1,> 10 µM (inactive)
23,COc1ccc(-c2ccc3cc(C(=O)O)ccc3c2)cc1C12CC3CC(CC(C3)C1)C2,> 10 µM (inactive)

row,SMILES,IC50
1,[O-][n+]1ccccc1SSc1cccc[n+]1[O-],> 10 µM (inactive)
2,COc1cccc2c1C(=O)c1c(O)c3c(c(O)c1C2=O)C[C@@](O)(C(C)=O)C[C@@H]3O[C@H]1C[C@H](N)[C@H](O)[C@H](C)O1,9.6 µM (inactive)
3,Cc1nc(N)nc(N)c1-c1ccc(Cl)c(Cl)c1,> 10 µM (inactive)
4,O=[N+]([O-])c1ccc(O)c2ncccc12,> 10 µM (inactive)
5,CCC(C)(C)C(=O)O[C@H]1C[C@@H](C)C=C2C=C[C@H](C)[C@H](CC[C@@H]3C[C@@H](O)CC(=O)O3)[C@H]21,> 10 µM (inactive)
6,CC(=O)Oc1ccc(C2(c3ccc(OC(C)=O)cc3)Oc3ccccc3NC2=O)cc1,> 10 µM (inactive)
7,C[n+]1c2cc(N)ccc2cc2ccc(N)cc21 (tested in a mixture with another compound),1.96 µM
8,C=C(C)[C@H]1Cc2c(ccc3c2O[C@@H]2COc4cc(OC)c(OC)cc4[C@@H]2C3=O)O1,> 10 µM (inactive)
9,CN(C)CCC=C1c2ccccc2CCc2ccccc21,> 10 µM (inactive)
10,CCCSc1ccc2nc(NC(=O)OC)[nH]c2c1,> 10 µM (inactive)
11,Cc1ccc2nc(N)[nH]c(=O)c2c1Sc1ccncc1,> 10 µM (inactive)
12,CN(C)/N=N/c1nc[nH]c1C(N)=O,> 10 µM (inactive)
13,O=C(O)CCc1nc2ccccc2[nH]1,> 10 µM (inactive)
14,CC(C)=CCOc1ccc(/C=C/C(=O)c2ccc(OCC=C(C)C)cc2OCC(=O)O)cc1,> 10 µM (inactive)
15,CC(CC1c2ccccc2CCc2ccccc21)CN(C)C (configuration not stated),> 10 µM (inactive)
16,COC(=O)c1nc(Cl)c(Cl)nc1N,> 10 µM (inactive)
17,COc1cc(NC(C)CCCN)c2ncccc2c1 (configuration not stated),> 10 µM (inactive)
18,O=c1[nH]c(=O)n([C@H]2C[C@H](O)[C@@H](CO)O2)cc1I,> 10 µM (inactive)
19,CO[C@@]12[C@H](COC(N)=O)C3=C(C(=O)C(C)=C(N)C3=O)N1C[C@@H]1N[C@@H]12,0.143 µM
20,COC(=O)Nc1nc2ccc(Sc3ccccc3)cc2[nH]1,> 10 µM (inactive)
21,CC(C)n1c(/C=C/[C@@H](O)C[C@@H](O)CC(=O)O)c(-c2ccc(F)cc2)c2ccccc21,> 10 µM (inactive)
22,O=C(O)CN(CCN(CC(=O)O)CC(=O)O)CCN(CC(=O)O)CC(=O)O,> 10 µM (inactive)
23,C[C@@H](O[C@H]1OCCN(Cc2n[nH]c(=O)[nH]2)[C@H]1c1ccc(F)cc1)c1cc(C(F)(F)F)cc(C(F)(F)F)c1,> 10 µM (inactive)

row,SMILES,IC50
1,COc1cccc2c1C(=O)c1c(O)c3c(c(O)c1C2=O)C[C@@](O)(C(=O)CO)C[C@@H]3O[C@H]1C[C@H](N)[C@H](O[C@@H]2CCCCO2)[C@H](C)O1,1.75 µM
2,O=C(c1cc(O)c(O)c(O)c1)c1ccc(O)c(O)c1O,> 10 µM (inactive)
3,COc1ccc(-c2nc3ccc(C4=NNC(=O)CC4C)cc3[nH]2)cc1 (configuration not stated),> 10 µM (inactive)
4,COc1c(C)c2c(c(O)c1C/C=C(\C)CCC(=O)OCCN1CCOCC1)C(=O)OC2,0.0147 µM
5,COc1cc(NCc2ccc3nc(N)nc(N)c3c2C)cc(OC)c1OC,> 10 µM (inactive)
6,O=c1[nH]cc(F)c(=O)[nH]1,> 10 µM (inactive)
7,O=C(O)CCCc1ccc(N(CCCl)CCCl)cc1,2.19 µM
8,O=C1c2c(O)ccc(O)c2C(=O)c2c(NCCNCCO)ccc(NCCNCCO)c21,> 10 µM (inactive)
9,CC(=O)[C@]1(O)Cc2c(O)c3c(c(O)c2[C@@H](O[C@H]2C[C@H](N)[C@H](O)[C@H](C)O2)C1)C(=O)c1ccccc1C3=O,> 10 µM (inactive)
10,OC[C@H]1O[C@@H](n2cnc3c(=S)nc[nH]c32)[C@H](O)[C@@H]1O,> 10 µM (inactive)
11,CC[n+]1c(-c2ccccc2)c2cc(N)ccc2c2ccc(N)cc21,> 10 µM (inactive)
12,Nc1nc(=S)c2[nH]cnc2[nH]1,> 10 µM (inactive)
13,COCCOC(=O)C1=C(C)NC(C)=C(C(=O)OC/C=C/c2ccccc2)C1c1cccc([N+](=O)[O-])c1 (configuration not stated),> 10 µM (inactive)
14,O=C1[C@H]2CCCC[C@H]2C(=O)N1CCCCN1CCN(c2nsc3ccccc23)CC1,> 10 µM (inactive)
15,O=C(CCBr)N1CCN(C(=O)CCBr)CC1,> 10 µM (inactive)
16,CCc1oc2ccccc2c1C(=O)c1cc(Br)c(O)c(Br)c1,> 10 µM (inactive)
17,Cc1ccc(CCn2c3c(c4cc(Cl)ccc42)CN(C)CC3)cn1,> 10 µM (inactive)
18,CC(C)c1c(C(=O)Nc2ccccc2)c(-c2ccccc2)c(-c2ccc(F)cc2)n1CC[C@@H](O)C[C@@H](O)CC(=O)O,> 10 µM (inactive)
19,CCCCCCCCCCCC(=O)[O][Sn]([CH2]CCC)([CH2]CCC)[O]C(=O)CCCCCCCCCCC,> 10 µM (inactive)
20,Cc1ccccc1C(OCCN(C)C)c1ccccc1 (configuration not stated),> 10 µM (inactive)
21,Clc1ccc(Nc2nnc(Cc3ccncc3)c3ccccc23)cc1,> 10 µM (inactive)
22,Cc1cc(CC(C)CC(C)(C)C)n(O)c(=O)c1 (configuration not stated),> 10 µM (inactive)
23,CCCCCCCCCCOCC(O)CN (configuration not stated),> 10 µM (inactive)

row,SMILES,IC50
1,CC[C@@]1(O)C(=O)OCc2c1cc1n(c2=O)Cc2cc3c(CN(C)C)c(O)ccc3nc2-1,0.082 µM
2,Oc1ccc([C@H]2CNCc3c2ccc(O)c3O)cc1O,> 10 µM (inactive)
3,COc1ccc2cc1Oc1ccc(cc1)C[C@H]1c3c(cc4c(c3Oc3cc5c(cc3OC)CCN(C)[C@@H]5C2)OCO4)CCN1C,> 10 µM (inactive)
4,Clc1ccccc1C(c1ccccc1)(c1ccccc1)n1ccnc1,> 10 µM (inactive)
5,CC(=O)N(O)CCCCCNC(=O)CCC(=O)N(O)CCCCCNC(=O)CCC(=O)N(O)CCCCCN,> 10 µM (inactive)
6,C[C@]12CC[C@@H]3c4ccc(O)cc4CC[C@H]3[C@@H]1CC[C@@H]2OC(=O)CCC1CCCC1,> 10 µM (inactive)
7,O=c1[nH]c(=O)n([C@H]2C[C@H](O)[C@@H](CO)O2)cc1F,0.169 µM
8,CCCCCCCCCCCCCC[N+](C)(C)C,> 10 µM (inactive)
9,CC(C)(C)C1CCC(CC2=C(O)c3ccccc3C(=O)C2=O)CC1 (configuration not stated),> 10 µM (inactive)
10,O[C@@H](CNC[C@H](O)[C@H]1CCc2cc(F)ccc2O1)[C@@H]1CCc2cc(F)ccc2O1,> 10 µM (inactive)
11,CCCCCCCCCCCCCCCC[n+]1ccccc1,> 10 µM (inactive)
12,C[C@@H]1C[C@H]2[C@@H]3CCC4=CC(=O)C=C[C@]4(C)[C@@]3(Cl)[C@@H](O)C[C@]2(C)[C@@]1(OC(=O)c1ccco1)C(=O)CCl,> 10 µM (inactive)
13,Nc1nc(=O)n([C@@H]2O[C@H](CO)[C@@H](O)[C@@H]2F)cc1I,> 10 µM (inactive)
14,O=C(NOCC1CC1)c1ccc(F)c(F)c1Nc1ccc(I)cc1Cl,> 10 µM (inactive)
15,COC(=O)[C@H]1[C@H]2C[C@@H]3c4[nH]c5cc(OC)ccc5c4CCN3C[C@H]2C[C@@H](OC(=O)/C=C/c2ccc(O)c(OC)c2)[C@@H]1OC,> 10 µM (inactive)
16,CC(C)(C)C(=O)OCOP(=O)(COCCn1cnc2c(N)ncnc21)OCOC(=O)C(C)(C)C,0.0608 µM
17,O=C(CCl)c1ccc(Cl)cc1Cl,> 10 µM (inactive)
18,C[C@@]12C(=O)OC(=O)[C@]1(C)C1CCC2O1,> 10 µM (inactive)
19,CN(Cc1cnc2nc(N)nc(N)c2n1)c1ccc(C(=O)N[C@@H](CCC(=O)O)C(=O)O)cc1,> 10 µM (inactive)
20,Cc1ccc2c(c1)c1c3n2CCNC3CCC1 (configuration not stated),> 10 µM (inactive)
21,COc1cc(-c2ccc(=O)[nH]n2)ccc1OC(F)F,> 10 µM (inactive)
22,Nc1nc(Cl)nc2c1ncn2[C@@H]1O[C@H](CO)[C@@H](O)[C@@H]1F,> 10 µM (inactive)
23,O=C1c2c(O)cccc2Cc2cccc(O)c21,> 10 µM (inactive)
